Measurements taken from BindingDB's records for doi:10.1021/jm050513m (The University of Texas At Houston, 2005).
Square brackets hold non-standard residues; d marks the D form. Peptide text beside a SMILES is read from it. * marks the point of attachment. ξ: configuration not given here. pY = N[C@@H](Cc1ccc(OP(=O)(O)O)cc1)C(=O)O; Met(O2) = CS(=O)(=O)CC[C@H](N)C(=O)O; Hydrocinnamoyl = O=C(CCc1ccccc1)*; Met(O) = CS(=O)CC[C@H](N)C(=O)O; Thr(3ξ) = CC(O)[C@H](N)C(=O)O; 3Abz = Nc1cccc(C(=O)O)c1; Nle = CCCC[C@H](N)C(=O)O; Piperidide = C1CCN(*)CC1; Pyrrolidide = C1CCN(*)C1; Inp = O=C(O)C1CCNCC1; Bz = O=C(c1ccccc1)*; Ahx = NCCCCCC(=O)O; GABA = NCCCC(=O)O

Each molecule was assayed against Signal transducer and activator of transcription 3 (Mus musculus, UniProt P42227) (assay: Fluorescence Polarization Assay). Settings: not given.
Signal transducer and activator of transcription 3, sequence (P42227 whole entry): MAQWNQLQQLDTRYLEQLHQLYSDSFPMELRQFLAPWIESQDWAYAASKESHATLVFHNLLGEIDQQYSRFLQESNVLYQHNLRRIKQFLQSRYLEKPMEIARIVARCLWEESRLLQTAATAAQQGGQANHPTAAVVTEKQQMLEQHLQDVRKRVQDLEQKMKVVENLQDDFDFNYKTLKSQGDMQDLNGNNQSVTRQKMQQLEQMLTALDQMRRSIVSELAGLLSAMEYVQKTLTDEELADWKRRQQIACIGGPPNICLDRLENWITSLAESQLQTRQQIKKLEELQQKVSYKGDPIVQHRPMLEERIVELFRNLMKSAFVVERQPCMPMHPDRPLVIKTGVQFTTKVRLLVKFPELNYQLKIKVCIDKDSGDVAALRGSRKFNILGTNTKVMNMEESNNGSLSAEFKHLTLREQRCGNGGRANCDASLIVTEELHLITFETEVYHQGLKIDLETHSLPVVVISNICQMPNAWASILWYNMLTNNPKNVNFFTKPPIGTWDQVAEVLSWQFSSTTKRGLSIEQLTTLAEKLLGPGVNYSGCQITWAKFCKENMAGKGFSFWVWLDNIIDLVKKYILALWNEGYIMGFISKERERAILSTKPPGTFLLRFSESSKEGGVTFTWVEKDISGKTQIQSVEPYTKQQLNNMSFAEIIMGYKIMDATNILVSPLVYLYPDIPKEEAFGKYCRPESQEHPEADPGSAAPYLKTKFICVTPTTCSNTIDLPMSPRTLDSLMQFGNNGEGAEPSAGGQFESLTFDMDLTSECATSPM
Method: Fluorescence polarization (FP) binding assay is utilizing the intrinsic property of the fluorescent probe, which will have low polarization value when free in solution. On binding to a target, the polarization of the probe will increase. Reaction mixtures of full length STAT3 alpha and the probe were placed in wells of a 96-well microtiter plate. The test peptide solution was added to each well. Fluorescence polarization was then read in a Tecan Polarian plate reader. The IC50 values were obtained from nonlinear regression analysis in the one-site competition mode. Peptides were assayed three times using three separate Stat3-probe preparations. IC50 values are reported as the mean of three IC50 values +/- the standard deviation.
For `CC(=O)N[C@@H](Cc1ccc(OP(=O)(O)O)cc1)C(=O)N[C@@H](CC(C)C)C(=O)N1CCC[C@H]1C(=O)N[C@@H](CCC(N)=O)C(=O)N1CCCCC1` [4-[(2S)-2-{[(2S)-1-[(2S)-2-{[(2S)-4-carbamoyl-1-oxo-1-(piperidin-1-yl)butan-2-yl]carbamoyl}pyrrolidin-1-yl]-4-methyl-1-oxopentan-2-yl]carbamoyl}-2-acetamidoethyl]phenoxyphosphonic acid] (Ac-[pY]LPQ-Piperidide), the IC50 was 7000 nM. `CC(=O)N[C@@H](Cc1ccc(OP(=O)(O)O)cc1)C(=O)N[C@@H](CC(C)C)C(=O)N1CCC[C@H]1C(=O)N[C@@H](CCC(N)=O)C(=O)N(C)C` [4-[(2S)-2-{[(2S)-1-[(2S)-2-{[(1S)-3-carbamoyl-1-(dimethylcarbamoyl)propyl]carbamoyl}pyrrolidin-1-yl]-4-methyl-1-oxopentan-2-yl]carbamoyl}-2-acetamidoethyl]phenoxyphosphonic acid] (Ac-[pY]LPQ-NMe2) gave an IC50 of 1850 nM. With `CC(=O)N[C@@H](Cc1ccc(OP(=O)(O)O)cc1)C(=O)N[C@@H](CC(C)C)C(=O)N1CCC[C@H]1C(=O)NCCCC(N)=O` [4-[(2S)-2-{[(2S)-1-[(2S)-2-[(3-carbamoylpropyl)carbamoyl]pyrrolidin-1-yl]-4-methyl-1-oxopentan-2-yl]carbamoyl}-2-acetamidoethyl]phenoxyphosphonic acid] (Ac-[pY]LP[GABA]-NH2) the IC50 was 1780 nM. `CC(=O)N[C@@H](Cc1ccc(OP(=O)(O)O)cc1)C(=O)N[C@@H](CC(C)C)C(=O)N1CCC[C@H]1C(=O)N1CCC(CC(N)=O)C1` (stereo partly drawn) [4-[(2S)-2-{[(2S)-1-[(2S)-2-{[3-(carbamoylmethyl)pyrrolidin-1-yl]carbonyl}pyrrolidin-1-yl]-4-methyl-1-oxopentan-2-yl]carbamoyl}-2-acetamidoethyl]phenoxyphosphonic acid] gave an IC50 of 1690 nM. `CC(=O)N[C@@H](Cc1ccc(OP(=O)(O)O)cc1)C(=O)N[C@@H](CC(C)C)C(=O)N1CCC[C@H]1C(=O)N[C@@H](CCC(N)=O)C(=O)N1CCCC1` [4-[(2S)-2-{[(2S)-1-[(2S)-2-{[(2S)-4-carbamoyl-1-oxo-1-(pyrrolidin-1-yl)butan-2-yl]carbamoyl}pyrrolidin-1-yl]-4-methyl-1-oxopentan-2-yl]carbamoyl}-2-acetamidoethyl]phenoxyphosphonic acid] (Ac-[pY]LPQ-Pyrrolidide) gave an IC50 of 2110 nM. `CC(=O)N[C@@H](Cc1ccc(OP(=O)(O)O)cc1)C(=O)N[C@@H](CC(C)C)C(=O)N1CCC[C@H]1C(=O)NCCCCCC(N)=O` [4-[(2S)-2-{[(2S)-1-[(2S)-2-[(5-carbamoylpentyl)carbamoyl]pyrrolidin-1-yl]-4-methyl-1-oxopentan-2-yl]carbamoyl}-2-acetamidoethyl]phenoxyphosphonic acid] (Ac-[pY]LP[Ahx]-NH2) showed an IC50 of 9780 nM. `CC(=O)N[C@@H](Cc1ccc(OP(=O)(O)O)cc1)C(=O)N[C@@H](CC(C)C)C(=O)N1CCC[C@H]1C(=O)Nc1cccc(C(N)=O)c1` [4-[(2S)-2-{[(2S)-1-[(2S)-2-[(3-carbamoylphenyl)carbamoyl]pyrrolidin-1-yl]-4-methyl-1-oxopentan-2-yl]carbamoyl}-2-acetamidoethyl]phenoxyphosphonic acid] (Ac-[pY]LP[3Abz]-NH2) showed an IC50 of 36600 nM. `CC(=O)N[C@@H](Cc1ccc(OP(=O)(O)O)cc1)C(=O)N[C@@H](CC(C)C)C(=O)N1CCC[C@H]1C(=O)N1CCN(CC(N)=O)CC1` [4-[(2S)-2-{[(2S)-1-[(2S)-2-{[4-(carbamoylmethyl)piperazin-1-yl]carbonyl}pyrrolidin-1-yl]-4-methyl-1-oxopentan-2-yl]carbamoyl}-2-acetamidoethyl]phenoxyphosphonic acid] gave an IC50 of 1400 nM.

Same assay, conditions: pH 7.5; 22 °C
`CC(C)C[C@H](NC(=O)[C@H](Cc1ccc(OP(=O)(O)O)cc1)NC(=O)CCc1ccccc1)C(=O)N1CCC[C@H]1C(=O)N[C@@H](CCC(N)=O)C(=O)N[C@H](C(N)=O)C(C)O` (stereo partly drawn) [4-[(2S)-2-{[(2S)-1-[(2S)-2-{[(1S)-3-carbamoyl-1-{[(1S,2S)-1-carbamoyl-2-hydroxypropyl]carbamoyl}propyl]carbamoyl}pyrrolidin-1-yl]-4-methyl-1-oxopentan-2-yl]carbamoyl}-2-(3-phenylpropanamido)ethyl]phenoxyphosphonic acid] (Hydrocinnamoyl-[pY]LPQ[Thr(3ξ)]-NH2) gave an IC50 of 276 nM. With `CC(=O)N[C@@H](Cc1ccc(OP(=O)(O)O)cc1)C(=O)N[C@@H](CC(C)C)C(=O)N1CCC[C@H]1C(=O)N[C@@H](CCS(C)(=O)=O)C(=O)N[C@H](C(N)=O)C(C)O` (stereo partly drawn) [4-[(2S)-2-{[(2S)-1-[(2S)-2-{[(1S)-1-{[(1S,2S)-1-carbamoyl-2-hydroxypropyl]carbamoyl}-3-methanesulfonylpropyl]carbamoyl}pyrrolidin-1-yl]-4-methyl-1-oxopentan-2-yl]carbamoyl}-2-acetamidoethyl]phenoxyphosphonic acid] (Ac-[pY]LP[Met(O2)][Thr(3ξ)]-NH2) the IC50 was 13900 nM. For `CC(=O)N[C@@H](Cc1ccc(OP(=O)(O)O)cc1)C(=O)N[C@@H](CC(C)C)C(=O)N1CCC[C@H]1C(=O)N[C@@H](CCC(N)=O)C(N)=O` (Ac-[pY]LPQ-NH2), the IC50 was 856 nM. `CC(=O)N[C@@H](Cc1ccc(OP(=O)(O)O)cc1)C(=O)N[C@@H](CC(C)C)C(=O)N1CCC(C(=O)N[C@@H](CCC(N)=O)C(=O)N[C@H](C(N)=O)C(C)O)CC1` (stereo partly drawn) [4-[(2S)-2-{[(2S)-1-(4-{[(1S)-3-carbamoyl-1-{[(1S,2S)-1-carbamoyl-2-hydroxypropyl]carbamoyl}propyl]carbamoyl}piperidin-1-yl)-4-methyl-1-oxopentan-2-yl]carbamoyl}-2-acetamidoethyl]phenoxyphosphonic acid] (Ac-[pY]L[Inp]Q[Thr(3ξ)]-NH2) showed an IC50 of 34600 nM. With `CCCC[C@H](NC(=O)[C@H](Cc1ccc(OP(=O)(O)O)cc1)NC(C)=O)C(=O)N1CCC[C@H]1C(=O)N[C@@H](CCC(N)=O)C(=O)N[C@H](C(N)=O)C(C)O` (stereo partly drawn) [4-[(2S)-2-{[(2S)-1-[(2S)-2-{[(1S)-3-carbamoyl-1-{[(1S,2S)-1-carbamoyl-2-hydroxypropyl]carbamoyl}propyl]carbamoyl}pyrrolidin-1-yl]-1-oxohexan-2-yl]carbamoyl}-2-acetamidoethyl]phenoxyphosphonic acid] (Ac-[pY][Nle]PQ[Thr(3ξ)]-NH2) the IC50 was 717 nM. In the case of `CC(C)C[C@H](NC(=O)[C@H](Cc1ccc(OP(=O)(O)O)cc1)NC(=O)c1ccccc1)C(=O)N1CCC[C@H]1C(=O)N[C@@H](CCC(N)=O)C(=O)N[C@H](C(N)=O)C(C)O` (stereo partly drawn) [4-[(2S)-2-{[(2S)-1-[(2S)-2-{[(1S)-3-carbamoyl-1-{[(1S,2S)-1-carbamoyl-2-hydroxypropyl]carbamoyl}propyl]carbamoyl}pyrrolidin-1-yl]-4-methyl-1-oxopentan-2-yl]carbamoyl}-2-(phenylformamido)ethyl]phenoxyphosphonic acid] (Bz-[pY]LPQ[Thr(3ξ)]-NH2), the IC50 is reported as 814 nM. `CC(=O)N[C@@H](Cc1ccc(OP(=O)(O)O)cc1)C(=O)N[C@@H](CC(C)C)C(=O)N1CCC[C@H]1C(=O)N[C@@H](CC[S+](C)[O-])C(=O)N[C@H](C(N)=O)C(C)O` (stereo partly drawn) [4-[(2S)-2-{[(2S)-1-[(2S)-2-{[(1S)-1-{[(1S,2S)-1-carbamoyl-2-hydroxypropyl]carbamoyl}-3-methanesulfinylpropyl]carbamoyl}pyrrolidin-1-yl]-4-methyl-1-oxopentan-2-yl]carbamoyl}-2-acetamidoethyl]phenoxyphosphonic acid] (Ac-[pY]LP[Met(O)][Thr(3ξ)]-NH2) gave an IC50 of 9870 nM.
